Read-outs that look alike come from different tables or passages of the source.
How the values were obtained:
hROMK1 (Kir1.1) = hROMK1 (Kir1.1) (Homo sapiens (Human), UniProt P48048); assay: ^86Rb^+ Efflux Assay; type: cell-based; settings: CHO-DHFR- cells stably expressing hROMK1 (Kir1.1)
hROMK (hKir1.1) = hROMK (hKir1.1) (Homo sapiens (Human), UniProt P48048); assay: Thallium Flux Assay; type: cell-based; settings: Table 2; HEK293 cells stably expressing hROMK (hKir1.1)
[1] = value in parentheses at the end of each Example, read-out: IC50 in the ^86Rb^+ Efflux Assay

Sequence of hROMK (hKir1.1) (P48048 whole entry): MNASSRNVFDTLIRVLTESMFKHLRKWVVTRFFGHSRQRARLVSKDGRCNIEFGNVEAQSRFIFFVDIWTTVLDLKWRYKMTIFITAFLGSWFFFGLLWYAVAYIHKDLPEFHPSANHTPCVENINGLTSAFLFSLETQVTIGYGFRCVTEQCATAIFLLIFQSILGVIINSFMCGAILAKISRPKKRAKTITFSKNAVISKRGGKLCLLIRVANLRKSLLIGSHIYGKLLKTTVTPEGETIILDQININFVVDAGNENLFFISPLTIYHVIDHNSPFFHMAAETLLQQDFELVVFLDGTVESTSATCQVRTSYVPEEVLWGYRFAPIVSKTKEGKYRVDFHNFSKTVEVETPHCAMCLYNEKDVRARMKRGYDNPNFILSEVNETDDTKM
Sequence of hROMK1 (Kir1.1) (P48048 whole entry): as above

| IC50 (hROMK1 (Kir1.1); [1]) | IC50 (hROMK (hKir1.1)) | IC50 (hROMK1 (Kir1.1); Table 1, read-out: ^86Rb^+ Efflux Assay IC50) | SMILES |
| --- | --- | --- | --- |
| 650 nM | 240 nM |  | C[C@H]1Cc2cc(CCN3CCN(CCc4ccc5c(c4)C[C@H](C)OC5=O)CC3)ccc2C(=O)O1 [Example 58, (3S,3′S)-6,6′-(Piperazine-1,4-diyldiethane-2,1-diyl)bis(3-methyl-3,4-dihydro-1H-isochromen-1-one)] |
| 34 nM | 12 nM | 34 nM | Cc1c(CCN2CCN(CC(C)c3ccc4c(c3C)COC4=O)CC2)ccc2c1COC2=O (stereo not shown) [Example 94, 4-Methyl-5-(1-(4-(2-(4-methyl-1-oxo-1,3-dihydroisobenzofuran-5-yl)ethyl)piperazin-1-yl)propan-2-yl)isobenzofuran-1(3H)-one] |
| 78 nM | 17 nM |  | Cc1c(CCN2CCN(CCc3ccc(C#N)c(F)c3Cl)CC2)ccc2c1COC2=O [Example 86, 3-Chloro-2-fluoro-4-(2-{4-[2-(4-methyl-1-oxo-1,3-dihydro-2-benzofuran-5-yl)ethyl]piperazin-1-yl}ethyl)benzonitrile] |

Source: patent US9073882B2, “Inhibitors of the renal outer medullary potassium channel” (Merck Sharp & Dohme Corp., priority 2010, dated 2015)
